These results are taken from patent publication US6713504B2, “Antifungal molecule 2-(3,4-dimethyl-2,5-dihydro-1H-pyrrol-2-yl)-1-methylethyl pentanoate” (Council of Scientific & Industrial Research, priority 2002, dated 2004).

Data set [1] in a line: In vitro cell cytotoxicity by MTT assay. It counts as cell-based. The note with it: mouse; 1250.0 μg/ml; RAW cells; MTT; read-out: percent cytotoxicity. As to the method: (§1) The stock culture of RAW cells was obtained from National Facility for Cell and Tissue Culture, Pune.
(§2) The stock solution of the compound was prepared by dissolving 2.5 mg of the purified compound in minimum amount of DMSO and then diluted with double distilled water to make the final volume 1.0-ml.
(§3) The cells were harvested at the log phase of growth confluency from the flask. The homogeneous suspension of cells was prepared in 2.0 ml of culture medium. The number of cells in the suspension was counted using a hemocytometer and the cell suspension was diluted in such a way so as to obtain 5×10^7 viable cells per ml. The viability of the cells was checked with trypan blue dye exclusion test. The cytotoxicity assay was performed in 96 wells flat bottom tissue culture plates (Nunc Nunclon). The cells (5×10^6) in 100.0 μl volume were seeded into each well. The plate was incubated at 37° C. in atmosphere of 5% (v/v) CO2 for 8 h. The wells were examined microscopically for the formation of monolayer of the cells. […] In +ve control wells, a known cytotoxic protein obtained from A. fumigatus, was used. The ZnSO4 (8.0 mg/L) was used as another +ve toxic material in another set of wells. In negative control wells equivalent amount of the solvent was used. The duplicate wells were used for each concentration of the test compound. The plates were incubated at 37° C. in 5% (v/v) CO2 incubator overnight (12 h). The medium along with floating dead cells from the wells was removed by inverting the plate. Thus, only the live cells sticking to the surface of plate were left in the wells. […] After adding the dye to the wells, the plate was kept at 37° C. in 5% CO2 for 1 h. The tissue culture plate was removed from the incubator and all the dye was aspirated. Only live cells took up the dye. The cells were lysed by adding 100.0 μl of isopropanol-HCl to the wells. After lysis of the cells, the plates were read at 540 nm using plate reader (Spectra Max 190, Molecular Device).
(§4) The toxicity of the compound was expressed as percentage with respect to that obtained in −ve control sample. The percent cytotoxicity was calculated using the formula given below. [formula]
(§5) The percent cytotoxicity was plotted against log concentration of the compound to find out concentration which was cytotoxic to 50% of the cells (CT50).
On the technique in general: Formazan colour is commonly taken as a measure of viable cells.

The next data set has as its system RAW cells. Put plainly: In vitro cell cytotoxicity by MTT assay. It counts as cell-based. As to the method:
as §1, §2, §3, §4, §5

The next data set has as its system A. fumigatus. As to the kind of experiment: Disc diffusion assay. It counts as cell-based. The conditions noted are these: concentration developing zone of inhibition of 6.0-mm diameter. As to the method:
Pathogenic strains of fungi were obtained from the Mycology Department of Vallabhbhai Patel Chest Institute, Delhi. All the strains were grown on Sabouraud dextrose agar at 37° C. The conidia form these cultures were harvested and suspended in Sabouraud maltose broth. The number of conidia was counted using haemocytometer and their number in the suspension was adjusted to as per need of the experiment.
The disc diffusion test was performed as per described in the section of details of invention. Amphotericin B 1.25 μg/disc was used in assay as positive control standard drug. Additional discs impregnated with equivalent amount of solvent were also used in the assay as negative controls (FIG. 5).
The potency of the compound was determined with the help of standard curve constructed using amphotericin B as standard drug against A. fumigatus. Standard curve was prepared according to method given in the Indian Pharmacopoeia. The corrected values of diameter of zone of inhibition along with lowest and highest values were determined. These values were plotted on semilog paper to prepare standard curve. The value of diameter of zone of inhibition obtained for compound was put into the standard curve and corresponding dose producing the effect equivalent to amphotericin B was determined to find out the potency of the compound (FIG. 6).

The subject of a further data set is A. fumigatus infection. As to the kind of experiment: In vivo efficacy (survival) in mice model of aspergillosis. The arrangement: species or system Balb/C mice. The conditions noted are these: 7 doses. As to the method:
The mice model of aspergillosis described by Dixon et al (1989), was used to study the effects of compound on in vivo infection of A. fumigatus.
The animals were housed in the micro-barrier cages on sterile bedding and fed ad libitum water and food. The mice were divided into 6 groups and each group contained 8-10 animals. The mice were infected experimentally with A. fumigatus. Three days prior to infection with conidia, mice were injected subcutaneously with 3 doses (250.0 mg/kg/day) of cortisone acetate in 400.0 μl of PBS. On the infection day, each mouse received 2×10^7 conidia by nasal instillation of a single droplet of conidial suspension.
A. fumigatus (190/96) isolate was grown on Sabouraud dextrose agar plates at 37° C. for 4 days. The conidia were collected from the culture plates using PBS (pH 7.2) containing 0.05% Tween 80 (Sigma Chemicals) and the suspension was filtered through sterile glass wool. The conidia were pelleted by centrifugation at 2000 rpm and re-suspended in PBS, pH 7.2. The number of conidia was counted and adjusted to 1×10^8 conidia/ml. The viability of the conidia was determined by plating the dilutions of suspensions on Sabouraud dextrose agar.
The purified compound (metelatropinyl ester) isolated from the D. metel was administered orally in the concentration ranging from 0.0, 25.0 50.0 100.0 200.0 and 400.0 mg/kg body weight to the mice infected experimentally with A. fumigatus.
The dosing of the animals (cortisone treated and challenged) with compound in 6 different groups was initiated within 30 min after challenge with A. fumigatus conidia.
Group I: The mice were treated orally with 7 doses of 25.0 mg/kg/day of the compound.
Group II: The animals infected with A. fumigatus conidia were given 50.0 mg/kg/day of the compound for 7 days orally.
Group III: The animals in this group were given 7 oral doses of 100.0 mg/kg/day of the compound.
Group IV: In this group of animals, 7 oral doses of the compound (200.0 mg/kg/day) were given.
Group V: The animals of this group were treated with 7 doses of 400.0 mg/kg/day orally over a period of 7 days.
Group VI: The animals of this group acted as control and were treated orally with 7 doses of 400 μl PBS containing solvent.
The animals were housed in properly labeled cages and kept under close watch for weight loss and the mortality. The survival rate over a period of 10 days was calculated and the fungal burden in survivors determined (Clemons and Stevens, 1994).
The Balb/C mice of 6-8 weak of age of either sex, weighing 15-20 g, were housed in micro-barrier cages on sterile bedding and fed ad libitum water and food. The animals were divided into 6 groups and each group contained 8-10 mice.

For `CCCCC(=O)OC(C)CC1NCC(C)=C1C` (centres unmarked) [PC-1, 2-(3,4-dimethyl-2,5-dihydro-1H-pyrrol-2-yl)-1-methylethyl pentanoate], the cytotoxicity at 12 h, 1250 μg/ml in data set [1] turned out to be 76%. The “concentration completely non-toxic to the cells” value in the data set with RAW cells (RAW cells, MTT) is on record as “up to 312.5 μg/ml”. The “CT50 (dose cytotoxic to 50% of the cells)” value in the data set on RAW cells (RAW cells, MTT, 12 h) came to 889.2 µg/mL. The “less cytotoxic than the standard antifungal drug Amphotericin B” value with RAW cells (comparison with Amphotericin B) came out at 57.8 times. The entries for the “MIC by disc diffusion assay” value with A. fumigatus and with A. fumigatus (listed as antifungal lead molecule) were 5 μg/disc and 5.0 μg/disc, respectively. Moreover, the “survived up to 10th day” value in the data set with A. fumigatus infection (25.0 mg/kg body weight oral, 1 out of 10) is 10%; in the data set with A. fumigatus infection (50.0 mg/kg body weight oral, 1 out of 8) it was 12.5%; in the data set with A. fumigatus infection (100.0 mg/kg body weight oral, 3 out of 9) it was 33.3%; in the data set with A. fumigatus infection (200.0 mg/kg body weight oral, 4 out of 9), 44.4%; with A. fumigatus infection (400.0 mg/kg body weight oral, 8 out of 10), 80%.
